Data on 68 sequences can be found in the supplement of paper PMC11208160.
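Further: IS621 bridge recombinase in Escherichia coli cells against a fixed T5 target plasmid.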

A short description of the data set: recombinant UMI read abundance after kanamycin selection (control-corrected) (log10(CPM+1)); higher = more efficient recombination; extreme values may be limits of the assay; sequences stand for … in AGTGCAGAGAAAATCGGCCAGTTTTCTCTGCCTGCAGTCCGCATGCCGTGGGACCCCTTGGGTTCTAACCTGTTGCCTAGATTTATGCAGCGGACTGCCTTTCTCCCAAAGTGATAAACCGG…AGGTTGGTTTCACT; site = the 11-nt donor. The method, boiled down:
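Counts of recombinant UMIs were reported as log10(CPM+1). Before that, they were converted to CPM, averaged over replicates and scaled using control-derived factors. They came from PCR across the donor–target junction after Escherichia coli carrying the pair library and target plasmid was plated on IPTG (0.07 mM) plus kanamycin, or unselected, in two replicates each.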
Regarding “CAAGCGGCATGGACCGGTTTTCCCGGTAATCCGTATTTGTG (site CAAGCGTCTCA)”, the “recombinant UMI read abundance (log10)” value was found to be 1.66.

With “CAAGTAACATGGACCGGTTTTCCCGGTAATCCGTATTTGGG (site CAAGTAACTCC)”, the “recombinant UMI read abundance (log10)” value turned out to be 1.53. In the case of “CAAGTAACATGGACCGGTTTTCCCGGTAATCCGTATTTGGG (site CAAGTCACTCC)” it was 0.0125. The value for “CAAGTAACATGGACCGGTTTTCCCGGTAATCCGTATTTGGG (site CAAGTGACTCC)” was 0.0247. In the case of “CAAGTAACATGGACCGGTTTTCCCGGTAATCCGTATTTGGG (site CAAGTTACTCC)” it was 0.237; in that of “CAAGTCACATGGACCGGTTTTCCCGGTAATCCGTATTTGCG (site CAAGTCACTCA)”, 1.27. For “CAAGTCACATGGACCGGTTTTCCCGGTAATCCGTATTTGCG (site CAAGTCACTCC)”, the “recombinant UMI read abundance (log10)” value is 0.632. The value for “CAAGTCACATGGACCGGTTTTCCCGGTAATCCGTATTTGCG (site CAAGTCACTCG)” was 2.34; that for “CAAGTCACATGGACCGGTTTTCCCGGTAATCCGTATTTGCG (site CAAGTCACTCT)” was 1.63; that for “CAAGTCACATGGACCGGTTTTCCCGGTAATCCGTATTTGGG (site AAAGTCACTCC)” was 0.0232.

Take “CAAGTCACATGGACCGGTTTTCCCGGTAATCCGTATTTGGG (site CAAATCACTCC)”: the “recombinant UMI read abundance (log10)” value came out at 0.0224. The value for “CAAGTCACATGGACCGGTTTTCCCGGTAATCCGTATTTGGG (site CAACTCACTCC)” was 0.177; that for “CAAGTCACATGGACCGGTTTTCCCGGTAATCCGTATTTGGG (site CAAGACACTCC)” was 0.0192. In the case of “CAAGTCACATGGACCGGTTTTCCCGGTAATCCGTATTTGGG (site CAAGCCACTCC)” it was 0.239.

For the sequence “CAAGTCACATGGACCGGTTTTCCCGGTAATCCGTATTTGGG (site CAAGGCACTCC)”, the “recombinant UMI read abundance (log10)” value was determined as 0.0072. The value for “CAAGTCACATGGACCGGTTTTCCCGGTAATCCGTATTTGGG (site CAAGTAACTCC)” was 0.0617; that for “CAAGTCACATGGACCGGTTTTCCCGGTAATCCGTATTTGGG (site CAAGTCACTAC)” was 0.0634. The value for “CAAGTCACATGGACCGGTTTTCCCGGTAATCCGTATTTGGG (site CAAGTCACTCA)” was 0.0308. The value for “CAAGTCACATGGACCGGTTTTCCCGGTAATCCGTATTTGGG (site CAAGTCACTCC)” was 0.013; that for “CAAGTCACATGGACCGGTTTTCCCGGTAATCCGTATTTGGG (site CAAGTCACTCG)” was 0. For the sequence “CAAGTCACATGGACCGGTTTTCCCGGTAATCCGTATTTGGG (site CAAGTCACTCT)”, the “recombinant UMI read abundance (log10)” value is 0.593.

With “CAAGTCACATGGACCGGTTTTCCCGGTAATCCGTATTTGGG (site CAAGTCACTGC)”, the “recombinant UMI read abundance (log10)” value was determined as 0.

With “CAAGTCACATGGACCGGTTTTCCCGGTAATCCGTATTTGGG (site CAAGTCACTTC)”, the “recombinant UMI read abundance (log10)” value was determined as 0.00273.

In the case of “CAAGTCACATGGACCGGTTTTCCCGGTAATCCGTATTTGGG (site CAAGTCCCTCC)”, the “recombinant UMI read abundance (log10)” value is 0.0287. The value for “CAAGTCACATGGACCGGTTTTCCCGGTAATCCGTATTTGGG (site CAAGTCGCTCC)” was 0.0204; that for “CAAGTCACATGGACCGGTTTTCCCGGTAATCCGTATTTGGG (site CAAGTCTCTCC)” was 0.493.

For “CAAGTCACATGGACCGGTTTTCCCGGTAATCCGTATTTGGG (site CAAGTGACTCC)”, the “recombinant UMI read abundance (log10)” value came to 0.0398. In the case of “CAAGTCACATGGACCGGTTTTCCCGGTAATCCGTATTTGGG (site CAAGTTACTCC)” it was 0.161; in that of “CAAGTCACATGGACCGGTTTTCCCGGTAATCCGTATTTGGG (site CAATTCACTCC)”, 0.0165; in that of “CAAGTCACATGGACCGGTTTTCCCGGTAATCCGTATTTGGG (site CACGTCACTCC)”, 0. The value for “CAAGTCACATGGACCGGTTTTCCCGGTAATCCGTATTTGGG (site CAGGTCACTCC)” was 0.0212; that for “CAAGTCACATGGACCGGTTTTCCCGGTAATCCGTATTTGGG (site CATGTCACTCC)” was 0.0038. The value for “CAAGTCACATGGACCGGTTTTCCCGGTAATCCGTATTTGGG (site CCAGTCACTCC)” was 0.0443. As to “CAAGTCACATGGACCGGTTTTCCCGGTAATCCGTATTTGGG (site CGAGTCACTCC)”, the “recombinant UMI read abundance (log10)” value worked out at 0.00994. The value for “CAAGTCACATGGACCGGTTTTCCCGGTAATCCGTATTTGGG (site CTAGTCACTCC)” was 0.0139; that for “CAAGTCACATGGACCGGTTTTCCCGGTAATCCGTATTTGGG (site GAAGTCACTCC)” was 0.0173; that for “CAAGTCACATGGACCGGTTTTCCCGGTAATCCGTATTTGGG (site TAAGTCACTCC)” was 0.0086.

For “CAAGTCGCATGGACCGGTTTTCCCGGTAATCCGTATTTGGT (site CAAGTCGCTAC)”, the “recombinant UMI read abundance (log10)” value was determined as 1.77. In the case of “CAAGTGCCATGGACCGGTTTTCCCGGTAATCCGTATTTGTA (site CAAGTGCCTTA)” it was 1.56; in that of “CAAGTTACATGGACCGGTTTTCCCGGTAATCCGTATTTGGG (site CAAGTAACTCC)”, 0.277; in that of “CAAGTTACATGGACCGGTTTTCCCGGTAATCCGTATTTGGG (site CAAGTCACTCC)”, 0.252. The value for “CAAGTTACATGGACCGGTTTTCCCGGTAATCCGTATTTGGG (site CAAGTGACTCC)” was 0.0286. In the case of “CAAGTTACATGGACCGGTTTTCCCGGTAATCCGTATTTGGG (site CAAGTTACTCC)” it was 0.861; in that of “CAATCATCATGGACCGGTTTTCCCGGTAATCCGTATTTGAT (site CAATCATCTAT)”, 0.435; in that of “CAATCATCATGGACCGGTTTTCCCGGTAATCCGTATTTGAT (site CGATCATCTAG)”, 0. Regarding “CAATCATCATGGACCGGTTTTCCCGGTAATCCGTATTTGCC (site CAATCATCTGG)”, the “recombinant UMI read abundance (log10)” value turned out to be 0.733. The value for “CAATCATCATGGACCGGTTTTCCCGGTAATCCGTATTTGCC (site CGATCATCTAG)” was 0; that for “CAATCCTCATGGACCGGTTTTCCCGGTAATCCGTATTTGCC (site CAATCCTCTGG)” was 1.54. Consider “CAATCCTCATGGACCGGTTTTCCCGGTAATCCGTATTTGCC (site CACTCCTCTGG)”, for which the “recombinant UMI read abundance (log10)” value stood at 1.14. The value for “CAATCCTCATGGACCGGTTTTCCCGGTAATCCGTATTTGCC (site CAGTCCTCTGG)” was 0; that for “CAATCCTCATGGACCGGTTTTCCCGGTAATCCGTATTTGCC (site CATTCCTCTGG)” was 0.913; that for “CAATCGGCATGGACCGGTTTTCCCGGTAATCCGTATTTGAC (site CAATCGGCTGT)” was 1.77. The value for “CAATCTCCATGGACCGGTTTTCCCGGTAATCCGTATTTGCC (site CAATCTCCTGG)” was 0; that for “CAATGATCATGGACCGGTTTTCCCGGTAATCCGTATTTGAA (site CAATGATCTTT)” was 3.01; that for “CAATGATCATGGACCGGTTTTCCCGGTAATCCGTATTTGAA (site CAATGCTCTTT)” was 0.0913. As for “CAATGATCATGGACCGGTTTTCCCGGTAATCCGTATTTGAA (site CAATGGTCTTT)”, the “recombinant UMI read abundance (log10)” value is 0.41.

In the case of “CAATGATCATGGACCGGTTTTCCCGGTAATCCGTATTTGAA (site CAATGTTCTTT)”, the “recombinant UMI read abundance (log10)” value was 0.682. Consider “CAATGATCATGGACCGGTTTTCCCGGTAATCCGTATTTGCT (site CAATGATCTAG)”, for which the “recombinant UMI read abundance (log10)” value is 2.19. The value for “CAATGATCATGGACCGGTTTTCCCGGTAATCCGTATTTGCT (site CGATCATCTAG)” was 0; that for “CAATGCACATGGACCGGTTTTCCCGGTAATCCGTATTTGAA (site CAATGCACTTT)” was 1.97; that for “CAATGCACATGGACCGGTTTTCCCGGTAATCCGTATTTGAA (site CAATGCCCTTT)” was 0. The value for “CAATGCACATGGACCGGTTTTCCCGGTAATCCGTATTTGAA (site CAATGCGCTTT)” was 0.409; that for “CAATGCACATGGACCGGTTTTCCCGGTAATCCGTATTTGAA (site CAATGCTCTTT)” was 0.438.

Take “CAATGCTCATGGACCGGTTTTCCCGGTAATCCGTATTTGCA (site CAATGCTCTTA)”: the “recombinant UMI read abundance (log10)” value turned out to be 1.1. The value for “CAATGCTCATGGACCGGTTTTCCCGGTAATCCGTATTTGCA (site CAATGCTCTTC)” was 0; that for “CAATGCTCATGGACCGGTTTTCCCGGTAATCCGTATTTGCA (site CAATGCTCTTG)” was 2.35. The value for “CAATGCTCATGGACCGGTTTTCCCGGTAATCCGTATTTGCA (site CAATGCTCTTT)” was 0.353; that for “CAATGCTCATGGACCGGTTTTCCCGGTAATCCGTATTTGGA (site CAATGCTCTTA)” was 2.13.
